Consider one molecule from US8022052B2, “Inhibition of PPAR gamma expression by specific osteogenic oxysterols” (The Regents of the University of California, priority 2006, dated 2011).

For test [1], the system named is M2-10B4 (M2) murine pluripotent bone MSC line. Particulars: cited from earlier work.
For test [2], the system named is PPARγ. As to the kind of experiment: PPRE luciferase reporter assay (PPARγ transcriptional activity) in M2 cells. In kind it is cell-based, mouse. The text has this: (§1) M2 cells at 70% confluency in a 24-well plate were transiently transfected with: a plasmid containing three tandem repeats of the PPAR response element (PPRE) upstream of the basic thymidine kinase promoter (p3xPPRE-TK-Luciferase), a control pTK-Luciferase plasmid devoid of PPRE, a CMX-PPARγ expression plasmid (all kind gifts of Dr Peter Tontonoz), a CMX-RXRα expression plasmid (kind gift of Dr Sotirios Tetradis), and a pTK-Renilla-Luciferase plasmid (Promega, Madison, Wis., USA) using Fugene 6 Transfection Reagents from Roche (Indianapolis, Ind., USA). Luciferase activity assay was performed using Dual-Luciferase Reporter 1000 Assay System (Promega, Madison, Wis., USA). Luciferase reporter activity was normalized to Renilla Luciferase activity. […] For GATA reporter assays, M2 cells were transfected with a GATA Luciferase reporter vector or a control reporter vector (both from Panomics, Fremont, Calif., USA), and pTK-Renilla-Luciferase plasmid.
M2 cells were transiently transfected with a reporter construct containing three tandem repeats of a PPRE (pTK-3×PPRE-Luciferase) or the control plasmid (pTK-Luciferase). Cells were treated with 10 μM Tro or control vehicle, and luciferase activity was measured after 24 and 48 h. […] Because PPARγ and retinoid X receptor (RXR) form obligatory heterodimers, we studied whether 20S would have an effect when both PPARγ and RXRα were overexpressed. […] Luciferase activity was measured after 24 hours and normalized for transfection efficiency using the Renilla luciferase activity. […] Luciferase activity was normalized for transfection efficiency using the Renilla luciferase activity. […] Luciferase activity was measured after 24 hours and normalized to the Renilla luciferase activity.
In general terms: Reporter assays use an easily measured gene product as a stand-in for the process of interest.

The test system of test [3] is M2-10B4 (M2) murine pluripotent bone MSC line. As to the kind of experiment: Tro-induced adipocyte formation in M2 cells, Oil red O staining. Particulars: M2 cells, 10 μM Tro, oxysterol 5 μM, 10 days. In kind it is cell-based, mouse. As to the method:
(§2) M2 mouse MSCs were purchased from American Type Culture Collection (ATCC, Rockville, Md., USA). […] Cell culture was performed in 24- and 6-well plates for adipogenic differentiation and gene expression studies, respectively, and treatment with test agents was done in growth medium.
Oil red O staining for detection of adipocytes was performed as previously described. […] The number of adipocytes was quantitated by counting Oil red O-positive cells in five separate fields per well, in three wells per experimental condition. The results are reported as the mean of triplicate determination ±SD.
(§3) Adipocyte formation was examined by Oil red O staining. […] PPARγ expression was assessed by RT-qPCR after treating M2 cells with Tro in the presence or absence of 20S. […] M2 cells at confluence were treated with control vehicle, 10 μM Tro, or 5 μM 20S, alone or in combination for 24 hours (FIG. 2A), 48 hours (FIG. 2B), and 96 hours (FIG. 2C). PPARγ mRNA expression was measured by quantitative real-time PCR.
(§4) After 10 days, adipocyte formation was measured by Oil red O staining. The number of adipocytes was determined by counting Oil red O-positive cells in five separate fields per well, in three wells per experimental condition. […] After 48 h, PPARγ mRNA expression was measured by quantitative real-time PCR. […] Luciferase activity was measured after 24 h and normalized for transfection efficiency using the Renilla luciferase activity.
Synthetic oxysterol compounds were studied for inhibition of adipogenesis and PPAR expression. […] After 10 days of treatment, cells were stained with Oil-red-O to detect adipocytes, and the number of positively stained cells was determined using light microscopy. Data from a representative experiment are reported as the mean of triplicate determination (average of five fields per well, 3 wells per experimental condition) ±SD.

The next test has as its system murine PPARγ2 promoter. As to the kind of experiment: PPARγ2 promoter luciferase activity induced by C/EBPα overexpression in M2 cells. In kind it is cell-based, mouse. The conditions noted are these: p19-PPARγ2 with MSV-C/EBPα plasmid, 24 h. The protocol: For PPARγ promoter activity assays, M2 cells were transiently transfected with a murine PPARγ2 promoter construct luciferase plasmid (p19-PPARγ2; (kind gift of Dr Steven McKnight), along with MSV-C/EBPα overexpression plasmid (kind gift of Dr. Sophia Tsai) and pTK-Renilla-Luciferase plasmid. Luciferase activity was measured after 24 h and normalized for transfection efficiency using the Renilla Luciferase activity.
To determine if 20S and Shh inhibit PPARγ expression by acting directly on its promoter, we focused on C/EBPα regulated PPARγ promoter activity.
as §4

The subject of test [4] is GATA2, GATA3, Gilz, and pref-1. As to the kind of experiment: GATA2, GATA3, Gilz and pref-1 expression in M2 cells by RT-qPCR. In kind it is cell-based, mouse. The conditions noted are these: 24 and 48 h, data not shown. The source says:
(§5) Total RNA was extracted with the RNA isolation kit from Stratagene (La Jolla, Calif., USA) according to the manufacturer's instructions. RNA was DNase-treated using DNA-free kit from Ambion (Austin, Tex., USA). Three micrograms of RNA was reverse-transcribed using reverse transcriptase from Stratagene to make single-stranded cDNA. The cDNA was mixed with Qi SYBR Green Supermix (Bio-Rad) for quantitative RT-PCR assay using a Bio-Rad I-cycler IQ quantitative thermocycler. All PCR samples were prepared in triplicate wells of a 96-well plate. After 40 cycles of PCR, melt curves were examined to ensure primer specificity. Fold changes in gene expression were calculated using the ΔΔCt method. […] Primers used are as follows: PPARγ2 (5′-[…]-3′ and 5′-[…]-3′), C/EBPα (5′-[…]-3′ and 5′-[…]-3′), ap2 (5′-[…]-3′ and 5′-[…]-3′), LPL (5′-[…]-3′ and 5′-[…]-[…]), GATA2 (5′-[…]-3′ and 5′-[…]-3′), GATA3 (5′-[…]-3′ and 5′-[…]-3′), GILZ (5′-[…]-3′ and 5′-[…]-3′), and pref-1 (5′-[…]-3′ and 5′-[…]-3′).
(In general: In qPCR the cycle at which signal appears reflects the starting amount.)

In another test the test system is aP2. As to the kind of experiment: aP2 mRNA expression in M2 cells by quantitative real-time PCR. In kind it is cell-based, mouse. The conditions noted are these: 10 μM Tro, 5 μM 20S, 24, 48, 96 hours. The protocol:
. M2 cells at confluence were treated with control vehicle, 10 μM Tro, or 5 μM 20S, alone or in combination for 24 hours (FIG. 4A), 48 hours (FIG. 4B), and 96 hours (FIG. 4C). aP2 mRNA expression was measured by quantitative real-time PCR. Fold changes in gene expression relative to the control were calculated using the ΔΔCt method and reported as the mean of triplicate determination ±SD (p<0.0001 for Tro or Tro+20S vs. control or 20S and p<0.01 for Tro vs. Tro+20S at 24 hours (FIG. 4A); p<0.0001 for Tro or Tro+20S vs. control or 20S and for Tro vs. Tro+20S at 48 hours (FIG. 4B); p<0.0001 for Tro vs. control, 20S, or Tro+20S and p<0.001 for Tro+20S vs. control or 20S at 96 hours (FIG. 4C)).

The test system of test [5] is PPARγ. As to the kind of experiment: PPARγ mRNA expression in M2 cells by RT-qPCR. In kind it is cell-based, mouse. The conditions noted are these: M2 cells, 10 μM Tro, oxysterol 5 μM; 24, 48, 96 h (20S), 48 h (Oxy13). The protocol: as §2, §5, §3, §4
After 48 hours of treatment, RNA was extracted from cells and analyzed for PPARγ expression by Q-RT-PCR. Data from a representative experiment, normalized to GAPDH expression, are reported as the mean of triplicate determinations ±SD.

For a further test, the system named is GATA. As to the kind of experiment: GATA luciferase reporter in M2 cells. In kind it is cell-based, mouse. The conditions noted are these: 24 and 48 h, data not shown.
Excerpt: as §1

The test system of a further test is C/EBPα. As to the kind of experiment: C/EBPα mRNA expression in M2 cells by quantitative real-time PCR. In kind it is cell-based, mouse. The conditions noted are these: 10 μM Tro, 5 μM 20S, 24, 48, 96 hours. As to the method:
. M2 cells at confluence were treated with control vehicle, 10 μM Tro, or 5 μM 20S, alone or in combination for 24 (FIG. 3A), 48 (FIG. 3B), and 96 (FIG. 3C) hours. C/EBPα mRNA expression was measured by quantitative real-time PCR. Fold changes in gene expression relative to the control were calculated using the ΔΔCt method and reported as the mean of triplicate determination ±SD (p<0.0001 for Tro vs. control and p<0.001 for Tro+20S vs. control at 24 hours (FIG. 3A); p<0.0001 for Tro vs. control and p<0.001 for Tro+20S vs. control at 48 hours (FIG. 3B); p<0.0001 for Tro or Tro+20S vs. control at 96 hours (FIG. 3C).

In the next test the test system is LXRs. As to the kind of experiment: LXR activation in M2 cells. In kind it is cell-based, mouse. Particulars: data not shown.

“Also recorded” adds a separate entry of the source.

As for `CC(C)CCC[C@](C)(O)[C@H]1CC[C@H]2[C@@H]3CC=C4C[C@@H](O)CC[C@]4(C)[C@H]3CC[C@@]21C` [Oxy 20S, 20(S)-hydroxycholesterol], the “adipogenic differentiation of M2 cells (previously reported)” value in test [1] is given as “inhibit”. Further, the “effect of 20S on Tro-induced PPRE reporter activity (PPARγ transcriptional activity)” value in the test on PPARγ [2] (M2 cells overexpressing PPARγ) was “did not inhibit but rather enhanced; also recorded: not inhibited but rather enhanced; also recorded: does not inhibit”. Besides, in the test on PPARγ [2] (M2 cells overexpressing PPARγ and RXRα, 24 hours), the “effect of 20S on PPARγ-RXRα induced PPRE reporter activity” value was “did not inhibit; also recorded: enhanced”. Also, in the test on PPARγ [2] (M2 cells without PPARγ overexpression, 24 hours), the “effect of 20S on Tro-induced PPRE reporter activity” value is “did not inhibit Tro-induced PPRE reporter activity, but instead caused a small but significant increase”. Further, the “inhibition of Tro-induced adipocyte formation” value in test [3] is recorded as “completely inhibited; also recorded: significantly inhibited”. Further, the “inhibition of PPARγ2 promoter activity induced by C/EBPα overexpression” value with murine PPARγ2 promoter was “greatly inhibited; also recorded: inhibit; also recorded: significantly inhibited”. Also, the “GATA2/GATA3, Gilz, and pref-1 gene expression” value in test [4] is given as “does not increase”. Further, the “effect of 20S on Tro-induced aP2 mRNA expression” value in the test on aP2 is listed as “inhibited”. The “inhibition of Tro-induced PPARγ mRNA expression” value with PPARγ [5] is recorded as “completely inhibited; also recorded: almost completely blocked; also recorded: specifically inhibited; also recorded: inhibits”. The GATA transcriptional activity result with GATA is reported as “does not increase”. Further, the “effect of 20S on Tro-induced C/EBPα mRNA expression” value with C/EBPα is given as “did not inhibit”. Moreover, the “activation of LXRs” value with LXRs is “activation”.
